Source: patent publication US4338451A, “5-Hydroxymethyl oxazolidinones” (Delalande S.A., priority 1977, dated 1982)

Key:
[1] = tested on: pontogeniculo-occipital points (P.G.O.) caused by an intravenous injection (0.5 mg/kg) of reserpine; test: Test C: reduction in the density of pontogeniculo-occipital points (P.G.O.) caused by reserpine in cats; type: in vivo; details: Felis catus, ip, reserpine 0.5 mg/kg intravenous, read-out: Test C ED 50
Experimental: Reduction in the density of pontogeniculo-occipital points (P.G.O.) caused by an intravenous injection (0.5 mg/kg) of reserpine given to cats, following the protocol described by A. COSTON and C. GOURET in J. Pharmacol. (Paris) (1976), 7, 409.

[2] = tested on: ptosis observed one hour after an intravenous injection (2 mg/kg) of reserpine; test: Test B: antagonism of the ptosis caused by reserpine in mice; type: in vivo; details: Mus musculus, po, 1 h, p.o., reserpine 2 mg/kg intravenous, read-out: Test B ED 50
Experimental: Antagonism with respect to the ptosis observed one hour after an intravenous injection (2 mg/kg) of reserpine given to mice, following the protocol described by C.

[3] = Acute toxicity in mice; details: mouse, in vivo, po, 1000 mg/kg
[4] = tested on: generalized trembling caused by an interperitoneal injection (200 mg/kg) of dl-5-hydroxytryptophane; test: Test A: potentiation in mice of generalized trembling caused by dl-5-hydroxytryptophane; type: in vivo; details: Mus musculus, po, dl-5-hydroxytryptophane 200 mg/kg intraperitoneal, read-out: Test A ED 50
Experimental: Potentiation in mice of generalized trembling caused by an interperitoneal injection (200 mg/kg) of dl-5-hydroxytryptophane, following the protocol described by C. GOURET and G. RAYNAUD in J. Pharmacol. (Paris), (1974) 5, 231.

In the case of `O=C1OC(CO)CN1c1ccc(OCc2cccc([N+](=O)[O-])c2)cc1` (centres unmarked) [770 234], the ED50 [1] is reported as 9 mg/kg, the ED50 [2] is reported as 0.7 mg/kg and the mortality [3] is reported as 0%. For the same compound, the ED50 [4] was 1.5 mg/kg.
`O=C1OC(CO)CN1c1ccc(OCc2cccc(Br)c2)cc1` (centres unmarked) [760 557] gave an ED50 [1] of 110 mg/kg, an ED50 [2] of 3.3 mg/kg and a mortality [3] of 0%. For the same compound, the ED50 [4] was 7.3 mg/kg.
